Literature values, collected in patent US8609138B2, “ω3 fatty acid compound preparation” (Mochida Pharmaceutical Co., Ltd., priority 2010, dated 2013).

Key:
[1] = pharmaceutical products; Non-Patent Literatures 2-4
[2] = pH 7.4; Non-Patent Literature 1

| SMILES | partition coefficient (octanol-water partition coefficient) [1] | log P7.4; water-octanol partition coefficient at a pH of 7.4 [2] |
| --- | --- | --- |
| CC[C@H](C)C(=O)O[C@H]1C[C@H](O)C=C2C=C[C@H](C)[C@H](CC[C@@H](O)C[C@@H](O)CC(=O)O)[C@H]21 [Pravastatin sodium] | −0.33 |  |
| CC[C@H](C)C(=O)O[C@H]1C[C@H](O)C=C2C=C[C@H](C)[C@H](CC[C@@H](O)C[C@@H](O)CC(=O)O)[C@H]21 [pravastatin] |  | −0.84 |
| CC(C)c1nc(N(C)S(C)(=O)=O)nc(-c2ccc(F)cc2)c1/C=C/[C@@H](O)C[C@@H](O)CC(=O)[O-].CC(C)c1nc(N(C)S(C)(=O)=O)nc(-c2ccc(F)cc2)c1/C=C/[C@@H](O)C[C@@H](O)CC(=O)[O-].[Ca+2] [rosuvastatin calcium] | −0.3±0.1 |  |
| CC(C)c1nc(N(C)S(C)(=O)=O)nc(-c2ccc(F)cc2)c1/C=C/[C@@H](O)C[C@@H](O)CC(=O)O [rosuvastatin] |  | ~-0.33 |
| CCC(C)(C)C(=O)O[C@H]1C[C@@H](C)C=C2C=C[C@H](C)[C@H](CC[C@@H]3C[C@@H](O)CC(=O)O3)[C@H]21 [simvastatin] |  | 1.60 |
